This is an account of results in the METLIN SMRT retention time set (Domingo-Almenara et al. 2019).

The data set in a line: gradient 5% acetonitrile 3 min, to 50% in 2 min, to 85% in 15 min, held 3 min, 100 µL/min. To be noted: column: Zorbax Extend-C18 2.1 x 50 mm; eluents: water / acetonitrile, 0.1% formic acid. In outline: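 The mobile phases were water and acetonitrile, each with 0.1% formic acid, pumped at 100 μL/min through a Zorbax Extend-C18 column (2.1 × 50 mm, 1.8 μm). Pure standards were injected as mixtures of ~100 molecules and detected by a quadrupole time-of-flight mass spectrometer in positive and negative ionization mode. Retention time came from computationally picked adduct peaks, each inspected by hand.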
`Cc1cnc(-c2cccnc2)n1C1CCN(S(=O)(=O)c2cccnc2)C1` (configuration not stated) displayed an RP-LC retention time of 575 s. `CCN(C(=O)C1CCN(S(=O)(=O)c2ccc3c(c2)NC(=O)CO3)CC1)c1ccccc1` had an RP-LC retention time of 794 s. As to `O=C([C@@H]1C[C@H](F)CN1S(=O)(=O)c1ccc(Br)s1)N1CCCCC1`, the RP-LC retention time was 839 s. `O=C(NCc1cccc(C(F)(F)F)c1)C1CCN(c2cc(N3CCOCC3)ncn2)CC1` yielded an RP-LC retention time of 672 s. In turn, `Cc1nn(-c2ccc(Cl)nn2)c(C)c1Cl` returned an RP-LC retention time of 996 s.

Turning to `Cc1ccc(NC(=O)Cn2c(N3CCOCC3)nc(C)cc2=O)c(C)c1`, the RP-LC retention time amounted to 658 s. For `Cc1cccc(-n2c(N3CCCC(C(=O)NCc4cccs4)C3)nc3ccsc3c2=O)c1` (configuration not stated), the RP-LC retention time came to 876 s. In the case of `CCc1ccc(CNC(=O)C2CC(=O)N(c3ccc4c(c3)CCN4C(C)=O)C2)cc1` (configuration not stated) it was 932 s. `CC(=O)c1ccc(NS(=O)(=O)N2CCC(C)CC2)cc1` showed an RP-LC retention time of 780 s. In the case of `O=S(=O)(c1cc(-c2ccno2)cs1)N1CCN(c2ncccn2)CC1` it was 843 s; in that of `Cc1cccc(NS(=O)(=O)c2cc(-c3cc(C(F)(F)F)on3)sc2C)c1`, 1150 s. `O=C(O)c1nnn(-c2ccc3c(c2)CCC3)c1-c1cccnc1` gave an RP-LC retention time of 711 s. On to `CN(Cc1cccn1C)C(=O)NC1CCCC1`, for which the RP-LC retention time turned out to be 775 s.

`c1ccc(-n2nnc(-c3noc(-c4ccccn4)n3)c2-c2ccncc2)cc1` yielded an RP-LC retention time of 718 s. As to `COc1cccc(-n2ccn3cc(-c4ccc(Cl)cc4)nc3c2=O)c1`, the RP-LC retention time was 875 s. `COc1cc(-c2noc(C3CC(=O)N(c4ccc(C)c(F)c4)C3)n2)cc(OC)c1OC` (configuration not stated): the RP-LC retention time stood at 976 s. For `O=C(Nc1ccc(-n2cnnn2)cc1)c1ccc(N2CCCC2)nn1`, the RP-LC retention time turned out to be 620 s. Compound `COc1cc(NS(=O)(=O)c2cc3n(c2)CCCN(C)C3=O)cc(OC)c1` had an RP-LC retention time of 672 s. For `CCOC(=O)c1cc2c([nH]c1=O)CC(c1ccccc1)CC2=O` (configuration not stated), the RP-LC retention time stood at 735 s. On to `Cc1cc(C)cc(NC(=O)N2CCN(c3ccc(=O)n(-c4ccccc4)n3)CC2)c1`, for which the RP-LC retention time was determined as 832 s. Consider `O=C(CCC1CCCC1)Nc1cccc(-c2nnc3n2CCCC3)c1`, for which the RP-LC retention time came to 762 s. `C[C@@H](Oc1ccc(S(C)(=O)=O)cc1C(=O)N1CCN(c2ncc(C(F)(F)F)cc2F)CC1)C(F)(F)F` showed an RP-LC retention time of 1090 s. In turn, `COc1ccc(NC(=O)c2nnc(CCCC(=O)NCCc3c[nH]c4ccc(C)cc34)s2)cc1` showed an RP-LC retention time of 992 s. `O=C(c1ccc(C(F)(F)F)cc1)N1CCC(n2c(-c3ccco3)nc3cccnc32)C1` (configuration not stated) came in with an RP-LC retention time of 826 s.

The compound `COCc1nn(C)c2c1CN(S(=O)(=O)c1cccc(C#N)c1)CC2` displayed an RP-LC retention time of 676 s. In the case of `COCc1c(C(=O)O)nnn1-c1ccc(F)c(F)c1` it was 723 s; in that of `COc1cc(OC)cc(-c2nc(C3CC(=O)N(c4ccc(F)cc4)C3)no2)c1` (configuration not stated), 977 s.

Take `O=C(Nc1cccnc1N1CCOCC1)C1CC1`: the RP-LC retention time is 576 s.

With `CCN1C(=O)Cc2cc(C(=O)NCc3cccs3)ccc21`, the RP-LC retention time is 704 s. As to `Cc1ccc(-c2csc(Cc3nc(-c4ccc(C)cc4)no3)n2)cc1`, the RP-LC retention time was determined as 1320 s.

`Cc1nn(CC(=O)NCCCN2CCOCC2)c(=O)c2nc(-c3ccccc3)sc12` registered an RP-LC retention time of 615 s.

For the compound `CCN1CCN(c2cc(-c3nc(-c4ccc(Cl)cc4)no3)c3ccccc3n2)CC1`, the RP-LC retention time worked out at 911 s. With `COc1cccc(NC(=O)C2CCCN(C(=O)C3Sc4ccccc4NC3=O)C2)c1` (configuration not stated), the RP-LC retention time is 786 s. Consider `CCCNC(=O)N1CCCC1c1nc(-c2ccccc2)no1` (configuration not stated), for which the RP-LC retention time was 816 s. Regarding `O=C1COc2ccc(S(=O)(=O)N3CCC(C(=O)NCc4cccs4)CC3)cc2N1`, the RP-LC retention time came to 702 s.

In the case of `Cc1cnc(-c2ccncc2)n1CC1CN(S(=O)(=O)c2ccc3c(c2)CCC3)C1`, the RP-LC retention time amounted to 651 s. Turning to `CCN1C(=O)COc2ccc(-c3noc(-c4cc(OC)c(OC)c(OC)c4)n3)cc21`, the RP-LC retention time turned out to be 1060 s. Compound `Cc1cccc(C)c1NC(=O)Cn1c(=O)n(Cc2ccc(F)cc2)c(=O)c2nccnc21` yielded an RP-LC retention time of 781 s. Take `CCN1CCCCc2cc(C(=O)NCC(F)F)sc21`: the RP-LC retention time is 892 s. `CC(C)OCCCNC(=O)CCc1c(-c2ccc(F)cc2)nc2ccccn12` had an RP-LC retention time of 622 s. `CCc1csc(-c2cn(CC(=O)NCc3cccc(C(F)(F)F)c3)cn2)n1`: the RP-LC retention time stood at 768 s. As for `COc1ccc(OC)c(NC(=O)CSc2cc(N3CCN(c4ccccc4F)CC3)ncn2)c1`, the RP-LC retention time was found to be 1180 s. The value for `Cc1nc(NCc2ccco2)sc1C(=O)Nc1ccc(F)c(Cl)c1` was 900 s; that for `CCOc1ccccc1-c1nc(-c2ccc3ncn(C)c3c2)no1` was 747 s. In the case of `CC(C)(CSc1nnnn1-c1ccccc1)NS(=O)(=O)c1ccccc1` it was 862 s. In the case of `CCOC(=O)c1c(N)n(CCCOC)c2nc3ccccc3nc12` it was 645 s. As to `CCOC(=O)C1=C(CN2CCN(C3CCCCC3)CC2)NC(=O)NC1c1ccccc1` (configuration not stated), the RP-LC retention time was found to be 658 s. For `Cc1nc(-c2ccc(-c3noc(CNC(=O)c4ccco4)n3)cc2)cs1`, the RP-LC retention time was determined as 837 s. In the case of `CCOC(=O)c1ccc(NC(=O)NCc2noc3ccc(C)cc23)cc1` it was 944 s; in that of `CCCNC(=O)N(C1CCOCC1)C1CCN(C(=O)c2ccsc2)CC1`, 680 s; in that of `Cc1c(F)cccc1NC(=O)N1CC(F)(F)C[C@H]1CN1CCCC1`, 676 s. Compound `O=C(NC1CCCCC1N1C(=O)CSC1=O)c1ccco1` (configuration not stated) showed an RP-LC retention time of 668 s.

Take `COCCN1C(=O)c2ccccc2C(C(=O)NCc2ccccc2)C12CCCCC2` (configuration not stated): the RP-LC retention time was 856 s.

With `CCCCS(=O)(=O)N1CCCC(c2nnc(-c3ccc4c(c3)OCO4)o2)C1` (configuration not stated), the RP-LC retention time is 819 s.

As for `Cc1sc(-c2nnc(C3CCC3)o2)cc1NC(=O)c1ccc(C#N)cc1`, the RP-LC retention time came to 965 s.

In turn, `Cc1noc(-c2ccc(-n3cnc(C(=O)NC4CCCCC4)c3)nc2)n1` registered an RP-LC retention time of 883 s.

`O=C(CN1CCN(Cc2ccccc2)C1=O)N1CCN(c2ccccc2)CC1` yielded an RP-LC retention time of 788 s. `CCOc1ccc(N2C=C(C#N)S(=O)(=O)c3ccccc32)cc1` had an RP-LC retention time of 943 s. The compound `CN(C)C(=O)C1CCN(S(=O)(=O)Cc2ccc(F)cc2)CC1` came in with an RP-LC retention time of 691 s. `CC(C)n1nnc2cc(C(=O)N(C)C)ccc21` displayed an RP-LC retention time of 648 s. `CCOC(=O)Cc1ccc(NC(=O)Nc2cccn3cnnc23)cc1` came in with an RP-LC retention time of 698 s. `CC(Cc1cccs1)NC(=O)NCc1cccc2ccccc12` (configuration not stated) yielded an RP-LC retention time of 881 s. On to `O=C(Cn1ncc2c(N3CCN(c4ccccn4)CC3)ncnc21)Nc1ccc(Cl)cn1`, for which the RP-LC retention time is 616 s.

For `COc1ccc(CNC(=O)Cn2c(=O)cc(-c3nc(C)no3)c3ccccc32)cc1`, the RP-LC retention time is 810 s.

`CC(C)(C[C@@](O)(Cc1cc2ccncc2[nH]1)C(F)(F)F)c1cc(F)ccc1O` came in with an RP-LC retention time of 790 s. For `Cc1nc(S(=O)(=O)N2CCc3c(c(-c4nnc(-c5ccc(F)cc5)o4)nn3C)C2)cn1C`, the RP-LC retention time came to 703 s. For `Cc1nc2cc(N3CCC(C(=O)NCc4ccc5c(c4)OCO5)CC3)cnc2nc1C`, the RP-LC retention time is 699 s. The value for `O=C(c1ccc2c(c1)N(Cc1ccc(F)cc1)C(=O)CO2)N1CCN(c2ccccn2)CC1` was 639 s; that for `Cc1cc(NC(=O)CCc2nc(CSc3nnc(-c4ccccc4)o3)no2)ccc1Br` was 1040 s. In the case of `Brc1ccc(OCc2nnc3sc(CCc4ccccc4)nn23)cc1` it was 1060 s; in that of `COc1ccc(C(=O)N(Cc2cc(OC)c(OC)c(OC)c2)C2CCS(=O)(=O)C2)cc1` (configuration not stated), 749 s. In the case of `O=C(NCCN1CCCCC1)c1cc2n(n1)CCCN(Cc1ccc(Cl)cc1)C2=O` it was 642 s; in that of `CC(=O)N1CCc2sc(S(=O)(=O)NCc3ccc4c(c3)OCO4)cc2C1`, 727 s; in that of `Oc1ccc(Nc2ccnc3cc(Cl)ccc23)cc1`, 665 s. The compound `Cc1nc(C(=O)Nc2ccccc2)c(C)n1C1CCN(S(C)(=O)=O)CC1` showed an RP-LC retention time of 648 s. The value for `CCn1c(C(=O)NCc2ccccc2Cl)cc2sc(Cl)cc21` was 1190 s; that for `CCc1nnc2ccc(NC3CC3)nn12` was 657 s; that for `O=C(NC1CC1)c1ccc2c(c1)CCN2C(=O)C1CCCC1` was 948 s. Turning to `COc1ncc(C(=O)NC2CCC(C)CC2)cn1` (configuration not stated), the RP-LC retention time was determined as 748 s. `O=C(CSc1nccn1-c1cccc(C(F)(F)F)c1)Nc1nccs1`: the RP-LC retention time came to 728 s. `CC1CCCCN1S(=O)(=O)c1ccc2nc(N3CCN(c4cccc(Cl)c4)CC3)ccc2c1` (configuration not stated) gave an RP-LC retention time of 1250 s. In the case of `NC(=O)C1(c2cccc(C(F)(F)F)c2)CC1` it was 764 s.
